Each structure is given as a SMILES string. Activity calls are given as the source filed them.

The results in this text go back to ChEMBL document CHEMBL1201862, “PubChem BioAssay data set” (2004).

One test concerns HeLa. The experiment in a line: HeLa cell cytotoxicity, dose response, cytotoxicity control for MITF activator project, CellTiter-Glo luminescence, cherry-pick samples (AID 540259). The test is classed as functional, cell-based. The following applies: Homo sapiens. (In general: In ATP-based viability assays light output follows the ATP content of the culture.)
The target in the next test is T1, Exodeoxyribonuclease V (Escherichia coli (strain K12), UniProt P04993+P07648+P08394).
T1 sequence (P04993 whole entry): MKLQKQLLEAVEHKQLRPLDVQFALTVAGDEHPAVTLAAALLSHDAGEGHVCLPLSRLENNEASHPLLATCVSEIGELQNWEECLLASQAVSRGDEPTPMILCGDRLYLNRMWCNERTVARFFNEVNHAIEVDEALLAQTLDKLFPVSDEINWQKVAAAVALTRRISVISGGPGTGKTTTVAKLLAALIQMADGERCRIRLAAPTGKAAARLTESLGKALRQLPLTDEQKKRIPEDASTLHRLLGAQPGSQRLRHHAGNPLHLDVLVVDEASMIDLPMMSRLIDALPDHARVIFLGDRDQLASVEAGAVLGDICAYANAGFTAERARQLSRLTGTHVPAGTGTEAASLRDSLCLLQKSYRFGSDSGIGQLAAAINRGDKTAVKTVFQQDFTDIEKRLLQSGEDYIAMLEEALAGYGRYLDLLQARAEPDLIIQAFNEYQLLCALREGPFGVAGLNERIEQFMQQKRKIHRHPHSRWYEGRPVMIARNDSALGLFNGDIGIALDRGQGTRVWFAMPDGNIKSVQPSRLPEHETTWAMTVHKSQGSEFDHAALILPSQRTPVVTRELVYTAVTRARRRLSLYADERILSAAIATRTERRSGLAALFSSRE
T1 sequence (P07648 whole entry): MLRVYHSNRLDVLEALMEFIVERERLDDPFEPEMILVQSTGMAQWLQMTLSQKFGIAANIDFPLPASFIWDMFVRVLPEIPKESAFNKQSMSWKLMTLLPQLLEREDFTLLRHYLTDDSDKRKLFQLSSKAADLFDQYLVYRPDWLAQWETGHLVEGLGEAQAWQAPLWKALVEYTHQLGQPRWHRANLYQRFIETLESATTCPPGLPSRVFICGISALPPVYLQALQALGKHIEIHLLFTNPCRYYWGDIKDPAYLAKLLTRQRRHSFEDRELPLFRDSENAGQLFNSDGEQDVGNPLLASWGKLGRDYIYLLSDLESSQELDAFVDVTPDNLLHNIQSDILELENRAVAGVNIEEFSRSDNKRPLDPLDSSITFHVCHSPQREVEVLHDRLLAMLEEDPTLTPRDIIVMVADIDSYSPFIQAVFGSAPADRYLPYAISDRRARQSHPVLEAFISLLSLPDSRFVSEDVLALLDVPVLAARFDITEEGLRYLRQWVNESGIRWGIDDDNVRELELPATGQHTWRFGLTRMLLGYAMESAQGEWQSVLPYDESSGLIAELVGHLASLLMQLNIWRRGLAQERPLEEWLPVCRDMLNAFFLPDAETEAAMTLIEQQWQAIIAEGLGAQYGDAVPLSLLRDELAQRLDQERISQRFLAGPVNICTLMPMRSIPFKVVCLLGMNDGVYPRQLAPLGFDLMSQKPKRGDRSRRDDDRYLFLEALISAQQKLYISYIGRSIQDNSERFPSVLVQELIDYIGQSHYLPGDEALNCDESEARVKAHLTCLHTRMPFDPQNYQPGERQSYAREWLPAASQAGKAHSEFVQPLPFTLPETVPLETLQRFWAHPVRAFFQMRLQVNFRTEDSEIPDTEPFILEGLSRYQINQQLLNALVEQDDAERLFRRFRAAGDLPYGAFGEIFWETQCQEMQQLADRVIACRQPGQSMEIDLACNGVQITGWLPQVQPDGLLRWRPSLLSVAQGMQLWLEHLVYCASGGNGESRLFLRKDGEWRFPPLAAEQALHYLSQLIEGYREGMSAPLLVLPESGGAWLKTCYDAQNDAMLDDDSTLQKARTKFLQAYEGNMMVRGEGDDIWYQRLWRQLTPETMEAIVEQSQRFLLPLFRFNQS
T1 sequence (P08394 whole entry): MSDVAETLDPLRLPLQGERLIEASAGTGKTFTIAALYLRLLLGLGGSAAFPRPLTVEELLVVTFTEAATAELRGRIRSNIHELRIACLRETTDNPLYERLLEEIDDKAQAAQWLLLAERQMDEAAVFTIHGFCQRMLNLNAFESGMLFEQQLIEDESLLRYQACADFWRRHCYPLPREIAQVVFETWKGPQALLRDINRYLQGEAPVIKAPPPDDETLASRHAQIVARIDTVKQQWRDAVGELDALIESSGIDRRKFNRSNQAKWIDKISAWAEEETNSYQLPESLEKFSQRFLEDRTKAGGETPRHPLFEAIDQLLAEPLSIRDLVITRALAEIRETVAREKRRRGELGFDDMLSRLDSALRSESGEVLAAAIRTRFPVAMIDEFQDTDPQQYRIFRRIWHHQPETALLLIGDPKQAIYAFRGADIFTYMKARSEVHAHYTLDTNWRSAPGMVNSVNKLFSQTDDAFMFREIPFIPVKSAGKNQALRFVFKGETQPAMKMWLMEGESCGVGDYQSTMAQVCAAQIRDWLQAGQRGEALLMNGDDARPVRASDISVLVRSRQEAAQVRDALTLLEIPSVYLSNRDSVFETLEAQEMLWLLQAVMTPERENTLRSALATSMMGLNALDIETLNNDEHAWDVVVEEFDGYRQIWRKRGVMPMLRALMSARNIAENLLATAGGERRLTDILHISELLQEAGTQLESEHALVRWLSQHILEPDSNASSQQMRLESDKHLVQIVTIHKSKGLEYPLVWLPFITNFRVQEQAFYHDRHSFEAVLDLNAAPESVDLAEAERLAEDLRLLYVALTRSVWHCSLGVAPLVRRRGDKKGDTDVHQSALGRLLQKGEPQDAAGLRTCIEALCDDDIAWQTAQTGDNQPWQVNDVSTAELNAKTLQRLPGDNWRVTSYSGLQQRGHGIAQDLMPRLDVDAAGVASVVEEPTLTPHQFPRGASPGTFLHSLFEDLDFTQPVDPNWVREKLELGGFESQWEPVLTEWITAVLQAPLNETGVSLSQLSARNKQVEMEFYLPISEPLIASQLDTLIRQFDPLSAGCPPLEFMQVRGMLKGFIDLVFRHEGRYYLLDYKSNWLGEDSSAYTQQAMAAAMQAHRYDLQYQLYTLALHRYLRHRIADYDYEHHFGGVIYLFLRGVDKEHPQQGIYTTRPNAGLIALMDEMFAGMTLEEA
The experiment in a line: E. coli RecBCD inhibitors, dose response, counter-screen for AddAB inhibitor project, absorbance, V66 E. coli, mutant T4 phage (AID 492957). Format: functional, cell-based, Escherichia coli str. K-12 substr. MG1655.

The next test deals with INS1. In words: beta cell apoptosis inhibitors, cytokine rescue, dose response, luminescence, retest (AID 449756).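 Note: cell death triggered by IL-1 beta plus TNF-alpha plus IFN-gamma mixture; protective hits raise ATP signal compared with cytokine alone wells.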 Format: functional, cell-based. To be noted: Rattus norvegicus.
Test [1] is described as follows: ZM109 Env clade C HIV-1 fusion inhibitors, dose response, HeLa effector, CEM target cells, luciferase, cherry-pick (AID 652058). The test is classed as functional, cell-based.
A further test deals with HEK293. The experiment in a line: HEK cell cytotoxicity by LDH release, dose response, cytotoxicity control for IDE activator project, fluorescence, HEK cells (AID 588440).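 Note: cytotoxicity by LDH release measuring loss of membrane integrity.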 The test is classed as functional, cell-based. To be noted: Homo sapiens. (In general: LDH in the medium is a marker of cell lysis.)

In the case of `COc1ccc2c(c1)CCC(/C=N/c1ccc3c(c1)OCO3)=C2O`, the AC50 in the test on HeLa is 48.4 µM (active).

As for `CC(=O)NC(c1ccc2ccccc2c1)c1ccc2cccnc2c1O` (stereo not given), the IC50 at Exodeoxyribonuclease V is > 118 µM (inactive).

Regarding `CCc1ccc(Nc2n[n+](-c3ccccc3)c(-c3c(Cl)cccc3Cl)s2)cc1`, the concentration at half-maximal activity (AC50) in the test with INS1 was 3.65 µM (active); in test [1], 23.3 µM (active).

With `CCOC(=O)C1=C(c2ccccc2)N=C(N)NC1c1ccc(OCc2ccc(Cl)cc2)c(OC)c1` (stereo not given), the IC50 in the test on HEK293 is 13 µM (inactive).

What is called AC50 is the concentration giving half of the maximal activity seen. For orientation: IC50 means the concentration needed to halve the response being measured.
